Laboratory results taken from patent US20170022242A1, “NOVEL ANTIVIRAL AND ANTITUMORAL COMPOUNDS” (KATHOLIEKE UNIVERSITEIT LEUVEN, KU LEUVEN R&D, priority 2014, published 2017).
Where two headings read alike, the source gives them in different places.

Experiments:
[1] = test system: HCV1b/Con1 replicon; experiment: HCV replicon antiviral evaluation assay (Luc reporter); assay type: cell-based; details: concentration inhibiting HCV replicon by 50%, Huh7 ET cells, 72 hr
[2] = Cytotoxicity, CytoTox-1 cell proliferation assay of cell numbers; details: human
[3] = test system: ET (luc-ubi-neo/ET) Huh7 human hepatoma cell line
[4] = test system: ET (luc-ubi-neo/ET) Huh7 human hepatoma cell line; experiment: Cytotoxicity, CytoTox-1 cell proliferation assay of cell numbers; details: concentration decreasing cell viability by 50%; Huh7 ET cells, 72 hr; Table 1
[5] = Table 1, 2′-C-methyl nucleoside phosphoramidates
[6] = Hepatitis C virus, Table 1, 2′-C-methyl nucleoside phosphoramidates

SMILES: C[C@@]1(F)[C@H](O)[C@@H](CO)O[C@H]1n1ccc(=O)[nH]c1=O [Cmpd 22, 2′-deoxy-2′-fluoro-2′-C-methyluridine, reference compound]
- EC50 ([1]; Hepatitis C virus, Table 2, 2′-F-nucleoside phosphoramidates): > 100 µM
- CC50 at 72 h [2]: > 100 µM

SMILES: CCCCCOC(=O)C[C@H](NP(=O)(OCC1OC(n2ccc(N)nc2=O)C(C)(O)C1O)Oc1ccccc1)C(=O)OCCCCC (stereo partly drawn) [Cmpd 16e, 2′-C-Methyl-cytidine-5′-[phenyl-bis(amyl-aspartyl)]phosphate]
- EC50 [1, 5]: 0.05 µM
- CC50 [3]: 9.53 µM

SMILES: CC(C)CCOC(=O)C[C@H](NP(=O)(OCC1OC(n2ccc(=O)[nH]c2=O)C(C)(O)C1O)Oc1ccccc1)C(=O)OCCC(C)C (stereo partly drawn) [Cmpd 17f, 2′-C-Methyl-uridine-5′-[phenyl-bis(isoamyl-aspartyl)]phosphate]
- EC50 [1, 5]: 0.03 µM
- CC50 [3]: 10 µM

SMILES: COC(=O)C[C@H](NP(=O)(OCC1OC(n2ccc(=O)[nH]c2=O)C(C)(O)C1O)Oc1ccccc1)C(=O)OC (stereo partly drawn) [Cmpd 17a, 2′-C-methyluridine-5′-[phenyl-bis(methoxy-aspartyl)]phosphate]
- EC50 [1, 5]: 1.13 µM
- CC50 [4]: > 100 µM

SMILES: COC(=O)C[C@H](NP(=O)(OCC1OC(n2ccc(N)nc2=O)C(C)(O)C1O)Oc1ccccc1)C(=O)OC (stereo partly drawn) [Cmpd 16a, 2′-C-methylcytidine-5′-[phenyl-bis(methoxy-aspartyl)]phosphate]
- EC50 [1, 5]: 3.71 µM
- CC50 [4]: > 100 µM

SMILES: C[C@@]1(O)[C@H](O)[C@@H](CO)O[C@H]1n1ccc(N)nc1=O [Cmpd 4, 2′-C-methylcytidine, reference compound]
- EC50 [1, 6]: 1.34 µM
- CC50 at 72 h [2]: > 100 µM

SMILES: CC(C)CCOC(=O)C[C@H](NP(=O)(OCC1OC(n2ccc(N)nc2=O)C(C)(O)C1O)Oc1ccccc1)C(=O)OCCC(C)C (stereo partly drawn) [Cmpd 16f, 2′-C-Methylcytidine-5′-[phenyl-bis(isoamyl-aspartyl)]phosphate]
- EC50 [1, 5]: 0.05 µM
- CC50 [4]: 9.54 µM

SMILES: CCCCOC(=O)C[C@H](NP(=O)(OC[C@H]1O[C@@H](n2ccc(N)nc2=O)[C@](C)(O)[C@@H]1O)Oc1ccccc1)C(=O)OCCCC (stereo partly drawn) [Cmpd 16d, 2′-C-Methylcytidine-5′-[phenyl-bis(n-butyl-aspartyl)]phosphate]
- EC50 [1, 5]: 0.26 µM
- CC50 [4]: 30.9 µM

SMILES: COC(=O)[C@H](CC(=O)OCc1ccccc1)NP(=O)(OCC1OC(n2ccc(=O)[nH]c2=O)C(C)(O)C1O)Oc1ccccc1 (stereo partly drawn) [Cmpd 17b, 2′-C-methyluridine-5′-[phenyl-(α-methoxy-β-benzyloxy-aspartyl)]phosphate]
- EC50 [1, 5]: 0.26 µM
- CC50 [4]: 43.4 µM

SMILES: CCCCOC(=O)C[C@H](NP(=O)(OCC1OC(n2ccc(=O)[nH]c2=O)C(C)(O)C1O)Oc1ccccc1)C(=O)OCCCC (stereo partly drawn) [Cmpd 17d, 2′-C-Methyl-uridine-5′-[phenyl-bis(n-butyl-aspartyl)]phosphate]
- EC50 [1, 5]: 0.04 µM
- CC50 [3]: 4.64 µM

SMILES: CC(C)OC(=O)C[C@H](NP(=O)(OCC1OC(n2ccc(=O)[nH]c2=O)C(C)(O)C1O)Oc1ccccc1)C(=O)OC(C)C (stereo partly drawn) [Cmpd 17c, 2′-C-Methyl-uridine-5′-[1-phenyl-bis(isopropyl-aspartyl)]phosphate]
- EC50 [1, 5]: 0.29 µM
- CC50 [3]: 35.7 µM

SMILES: CCCCCOC(=O)C[C@H](NP(=O)(OCC1OC(n2ccc(=O)[nH]c2=O)C(C)(O)C1O)Oc1ccccc1)C(=O)OCCCCC (stereo partly drawn) [Cmpd 17e, 2′-C-Methyl-uridine-5′-[phenyl-bis(amyl-aspartyl)]phosphate]
- EC50 [1, 5]: 0.03 µM
- CC50 [3]: 7.11 µM

SMILES: CC(C)CCOC(=O)C[C@H](NP(=O)(OCC1OC(n2ccc(=O)[nH]c2=O)C(C)(F)C1O)Oc1ccccc1)C(=O)OCCC(C)C (stereo partly drawn) [Cmpd 23a, 2′-Deoxy-2′-fluoro-2′-C-methyl-uridine-5′-[phenyl-bis(isoamyl-aspartyl)]phosphate]
- EC50 ([1]; Table 2, 2′-F-nucleoside phosphoramidates): 0.06 µM
- CC50 [3]: 27.7 µM

SMILES: CC(C)OC(=O)C[C@H](NP(=O)(OCC1OC(n2ccc(N)nc2=O)C(C)(O)C1O)Oc1ccccc1)C(=O)OC(C)C (stereo partly drawn) [Cmpd 16c, 2′-C-Methylcytidine-5′-[1-phenyl-bis(isopropyl-aspartyl)]phosphate]
- EC50 [1, 5]: 0.96 µM
- CC50 [4]: > 100 µM

SMILES: C[C@@]1(O)[C@H](O)[C@@H](CO)O[C@H]1n1ccc(=O)[nH]c1=O [Cmpd 5, 2′-C-methyluridine, reference compound]
- EC50 [1, 6]: 6.31 µM
- CC50 at 72 h [2]: > 100 µM

SMILES: CC(C)CCOC(=O)C[C@H](NP(=O)(OCC1OC(n2ccc(=O)[nH]c2=O)C(C)(F)C1O)Oc1ccccc1)C(=O)OCCC(C)C (stereo partly drawn) [Mixture 23a/23b, 2′-Deoxy-2′-fluoro-2′-C-methyl-uridine-5′-[phenyl-bis(isoamyl-aspartyl)]phosphate]
- CC50 [3]: 33.1 µM

SMILES: COC(=O)[C@H](CC(=O)OCc1ccccc1)NP(=O)(OCC1OC(n2ccc(N)nc2=O)C(C)(O)C1O)Oc1ccccc1 (stereo partly drawn) [Cmpd 16b, 2′-C-methylcytidine-5′-[phenyl-(α-methoxy-β-benzyloxy-aspartyl)]phosphate]
- EC50 [1, 5]: 1.32 µM
- CC50 [4]: > 100 µM
